Experimental data as given in patent US8975248B2, “Combinations of therapeutic agents for treating cancer” (Sigma-Tau Industrie Farmaceutiche Riunite S.p.A., priority 2004, dated 2015).
Like-named read-outs stand apart in the source and are kept apart here.

Assays:
MCF-7 human breast ca. = assay: Antitumor activity against MCF-7 breast carcinoma xenograft; conditions: for BWL % (body weight loss): in vivo, po
Procedure: The pellets are placed in the inter scapular region one day before the tumor cells inoculation. 8 mice/group are treated 6 days after tumor injection with the following drugs: • 1. Vehicle • 2.

DU145 prostate carcinoma = assay: Antitumor activity against DU145 xenograft; conditions: for BWL % (body weight loss): in vivo, po
Procedure: 8 mice/group are treated 14 days after tumor injection with the following drugs: • 1. Vehicle • 2.
8 mice/group are also treated 14 days after tumor injection with the following drugs: • 1. […] Docetaxel 20 mg/10 mi/kg, i.p., (q7dx3, days 14, 21, 28). • 3. Combination groups: 7-t-butoxyiminomethylcamptothecin+docetaxel 0.17+20.

[1] = system: MDA MB 435S human breast cancer; assay: Antitumor activity against MDA MB 435S xenograft; type: in vivo, human (xenograft in BALB/c nu/nu mice)
Procedure: Test system: BALB/c nu/nu mice for tumor models are used.
The cells are harvested by trypsinisation, washed twice in HBSS and counted using Trypan Blue to distinguish viable cells.
Doxorubicin (either on its own or in conjunction with Gimatecan) is administered 3 times per week intravenously, via the tail vein (i.v.). • 1. Vehicle • 2.
The paired t-test is used to determine differences in body weight changes from Day 0 to Day 13 for groups 14 and 15 and from Day 0 to Day 20 for all other groups (Table 4). All calculations are done using SigmaStat 3.0. The one way ANOVA procedure is used for statistical calculations of differences in the tumor volumes.

[2] = system: A2780/DDP platinum-resistant ovarian carcinoma; assay: Antitumor activity against A2780/DDP xenograft; type: in vivo, human (xenograft in CD1 nu/nu mice)
Procedure: 8 mice/group are treated 3 days after tumor injection with the following drugs. • 1. Vehicle • 2.
(§1) In all the combination groups, the drug were administered 1 h before 7-t butoxyiminomethylcamptothecin.

A2780 ovarian carcinoma = assay: Antitumor activity against A2780 ovarian carcinoma xenograft; type: in vivo, human (s.c. xenograft in CD1 nu/nu mice)
Procedure: Vehicle • 2. […] Oxaliplatin 7 mg/10 ml/kg and 4.7 mg/10 ml/kg, i.p. (q4dx2, days 3, 7). • 4. Combination groups: 7-t-butoxyiminomethylcamptothecin+oxaliplatin: 0.28+7, 0.28+4.7, 0.19+7, 0.19+4.7. • 5. […] Oxaliplatin 7 mg/10 ml/kg, i.p. (q7dx2, days 3, 10). • 7. Combination groups: 7-t-butoxyiminomethylcamptothecin+oxaliplatin 0.19+7.
7-8 mice/group are treated 3 days after tumor injection with the following drugs. • 1. Vehicle • 2. […] Carboplatin 50 mg/10 ml/kg, i.p. (q7dx2, days 3, 10). • 7. Combination groups: 7-t-butoxyiminomethylcamptothecin+carboplatin 0.19+50.
as §1

[3] = Maximum tolerated dose (MTD) in tumor-bearing mice; type: in vivo
NCI-H460 NSCLC [4] = conditions: in vivo, po
Procedure: (§2) Mice are treated with 3 intravenously doses of paclitaxel at days 3, 10, 17 after tumor injection. […] Treatments in NCI-H460 tumor model are performed in the following groups of 8 mice each: • 1. Vehicle • 2. 50 mg/15 ml/kg, i.v. of paclitaxel (3, 10, 17) • 3. […] 25 mg/15 ml/kg, i.v. of paclitaxel (3, 10, 17) • 5.

NCI-H460 NSCLC [5] = assay: Antitumor activity against NCI-H460 xenograft (paclitaxel); conditions: for reduction of the tumor volume: 5 days for 3 cycles
Procedure: as §2

[6] = system: NCI-H460 non-small cell lung carcinoma; assay: Antitumor activity against NCI-H460 xenograft (docetaxel, carboplatin); type: in vivo, human (xenograft in CD1 nu/nu mice)
[7] = A 0.28 mg/kg p.o. qdx5/w, 0.28 mg/kg
[8] = A 0.08 mg/kg p.o. qdx5/w, 3 cycles
[9] = docetaxel 20 mg/kg i.p. q3-4dx2
[10] = carboplatin 50 mg/kg i.p. q4dx2

CC[C@@]1(O)C(=O)OCc2c1cc1n(c2=O)Cc2c-1nc1ccccc1c2/C=N/OC(C)(C)C [A]
CR (complete response) (MCF-7 human breast ca.; A 0.19 mg/kg p.o. qdx5/w): 1/8 | TVI % (tumor volume inhibition) (MCF-7 human breast ca.; A 0.19 mg/kg p.o. qdx5/w): 81% | Tox (dead/treated mice) (MCF-7 human breast ca.; A 0.19 mg/kg p.o. qdx5/w): 2/8 | TVI % (tumor volume inhibition) (MCF-7 human breast ca.; A 0.28 mg/kg p.o. qdx5/w): 70% | Tox (dead/treated mice) (MCF-7 human breast ca.; A 0.28 mg/kg p.o. qdx5/w): 1/8 | CR (complete response) (MCF-7 human breast ca.; [7]): 1/8 | BWL % (body weight loss) (MCF-7 human breast ca.; 0.19 mg/kg): 10% | BWL % (body weight loss) (MCF-7 human breast ca.; 0.28 mg/kg): 9% | CR (complete response) (DU145 prostate carcinoma; A 0.19 mg/kg p.o. qdx5/w): 0/8 | LCK (log10 cell kill) (DU145 prostate carcinoma; A 0.19 mg/kg p.o. qdx5/w): 0.28 | TVI % (tumor volume inhibition) (DU145 prostate carcinoma; A 0.19 mg/kg p.o. qdx5/w): 25% | Tox (dead/treated mice) (DU145 prostate carcinoma; A 0.19 mg/kg p.o. qdx5/w): 0/8 | CR (complete response) (DU145 prostate carcinoma; A 0.25 mg/kg p.o. qdx5/w): 0/8 | LCK (log10 cell kill) (DU145 prostate carcinoma; A 0.25 mg/kg p.o. qdx5/w): 0.28 | TVI % (tumor volume inhibition) (DU145 prostate carcinoma; A 0.25 mg/kg p.o. qdx5/w): 53% | Tox (dead/treated mice) (DU145 prostate carcinoma; A 0.25 mg/kg p.o. qdx5/w): 0/8 | BWL % (body weight loss) (DU145 prostate carcinoma; 0.19 mg/kg): 4% | BWL % (body weight loss) (DU145 prostate carcinoma; 0.25 mg/kg): 8% | BWL % (body weight loss) ([1]; A 0.07 mg/kg p.o. qdx5/w): (+2.5) % | T/C % ([1]; A 0.07 mg/kg p.o. qdx5/w): 93% | Tox (dead/treated mice) ([1]; A 0.07 mg/kg p.o. qdx5/w): 9/9 | BWL % (body weight loss) ([1]; A 0.14 mg/kg p.o. qdx5/w): 1% | T/C % ([1]; A 0.14 mg/kg p.o. qdx5/w): 46% | Tox (dead/treated mice) ([1]; A 0.14 mg/kg p.o. qdx5/w): 0/9 | BWL % (body weight loss) ([1]; A 0.21 mg/kg p.o. qdx5/w): 1% | T/C % ([1]; A 0.21 mg/kg p.o. qdx5/w): 5% | Tox (dead/treated mice) ([1]; A 0.21 mg/kg p.o. qdx5/w): 1/9 | BWL % (body weight loss) ([2]; A 0.19 mg/kg p.o. qdx5/w): 1% | LCK (log10 cell kill) ([2]; A 0.19 mg/kg p.o. qdx5/w): 0.18 | TVI % (tumor volume inhibition) ([2]; A 0.19 mg/kg p.o. qdx5/w): 35% | Tox (dead/treated mice) ([2]; A 0.19 mg/kg p.o. qdx5/w): 0/8 | BWL % (body weight loss) ([2]; A 0.28 mg/kg p.o. qdx5/w): 7% | LCK (log10 cell kill) ([2]; A 0.28 mg/kg p.o. qdx5/w): 0.23 | TVI % (tumor volume inhibition) ([2]; A 0.28 mg/kg p.o. qdx5/w): 46% | Tox (dead/treated mice) ([2]; A 0.28 mg/kg p.o. qdx5/w): 0/8 | BWL % (body weight loss) (A2780 ovarian carcinoma; A 0.19 mg/kg p.o. qdx5/w): 6% | CR (complete response) (A2780 ovarian carcinoma; A 0.19 mg/kg p.o. qdx5/w): 8/8 | LCK (log10 cell kill) (A2780 ovarian carcinoma; A 0.19 mg/kg p.o. qdx5/w): 2.15 | TVI % (tumor volume inhibition) (A2780 ovarian carcinoma; A 0.19 mg/kg p.o. qdx5/w): 100% | Tox (dead/treated mice) (A2780 ovarian carcinoma; A 0.19 mg/kg p.o. qdx5/w): 0/8 | BWL % (body weight loss) (A2780 ovarian carcinoma; A 0.19 mg/kg p.o. qdx5/wx2w): 6% | CR (complete response) (A2780 ovarian carcinoma; A 0.19 mg/kg p.o. qdx5/wx2w): 4/7 | LCK (log10 cell kill) (A2780 ovarian carcinoma; A 0.19 mg/kg p.o. qdx5/wx2w): 3.15 | TVI % (tumor volume inhibition) (A2780 ovarian carcinoma; A 0.19 mg/kg p.o. qdx5/wx2w): 100% | Tox (dead/treated mice) (A2780 ovarian carcinoma; A 0.19 mg/kg p.o. qdx5/wx2w): 0/7 | BWL % (body weight loss) (A2780 ovarian carcinoma; A 0.28 mg/kg p.o. qdx5/w): 13% | CR (complete response) (A2780 ovarian carcinoma; A 0.28 mg/kg p.o. qdx5/w): 8/8 | TVI % (tumor volume inhibition) (A2780 ovarian carcinoma; A 0.28 mg/kg p.o. qdx5/w): 100% | Tox (dead/treated mice) (A2780 ovarian carcinoma; A 0.28 mg/kg p.o. qdx5/w): 0/8 | LCK (log10 cell kill) (A2780 ovarian carcinoma; [7]): 2.44 | MTD at 5 days ([3]; CD1 nu/nu, mouse, in vivo, po, p.o. qdx5): 0.28 mg/kg | MTD ([3]; female, CD1 nu/nu, mouse, in vivo, oral, qdx5/w, A2780/DDP model, read-out: approximate maximum tolerated dose): ~0.28 mg/kg | MTD ([3]; male, mouse, in vivo, oral, qdx5/w, DU145 model, read-out: approximate maximum tolerated dose): ~0.25 mg/kg | BWL % (body weight loss) (NCI-H460 NSCLC [4]; 0.08 mg/kg): 0% | BWL % (body weight loss) (NCI-H460 NSCLC [4]; 0.125 mg/kg): 0% | BWL % (body weight loss) (NCI-H460 NSCLC [4]; 0.25 mg/kg): 0% | T/C % (TW in treated mice/TW in control mice × 100) (NCI-H460 NSCLC [5]; [8]): 59.5% | Tox (dead/treated mice) (NCI-H460 NSCLC [5]; [8]): 0/8 | T/C % (TW in treated mice/TW in control mice × 100) (NCI-H460 NSCLC [5]; A 0.125 mg/kg p.o. qdx5/w, 3 cycles): 9.9% | Tox (dead/treated mice) (NCI-H460 NSCLC [5]; A 0.125 mg/kg p.o. qdx5/w, 3 cycles, 0.125 mg/kg): 0/8 | reduction of the tumor volume (NCI-H460 NSCLC [5]; A 0.125 mg/kg): ~90% | T/C % (TW in treated mice/TW in control mice × 100) (NCI-H460 NSCLC [5]; A 0.25 mg/kg p.o. qdx5/w, 3 cycles): 1.5% | Tox (dead/treated mice) (NCI-H460 NSCLC [5]; A 0.25 mg/kg p.o. qdx5/w, 3 cycles, 0.25 mg/kg): 0/8 | reduction of the tumor volume (NCI-H460 NSCLC [5]; A 0.25 mg/kg): about 99% | BWL % (body weight loss) ([6]; A 0.19 mg/kg p.o. qdx5/w): 8% | CR (complete response) ([6]; A 0.19 mg/kg p.o. qdx5/w): 1/8 | LCK (log10 cell kill) ([6]; A 0.19 mg/kg p.o. qdx5/w): 1.14 | TVI % (tumor volume inhibition) ([6]; A 0.19 mg/kg p.o. qdx5/w): 79% | Tox (dead/treated mice) ([6]; A 0.19 mg/kg p.o. qdx5/w): 0/8 | BWL % (body weight loss) ([6]; A 0.19 mg/kg p.o. qdx5/wx2w): 7% | CR (complete response) ([6]; A 0.19 mg/kg p.o. qdx5/wx2w): 0/7 | LCK (log10 cell kill) ([6]; A 0.19 mg/kg p.o. qdx5/wx2w): 2.3 | TVI % (tumor volume inhibition) ([6]; A 0.19 mg/kg p.o. qdx5/wx2w): 94% | Tox (dead/treated mice) ([6]; A 0.19 mg/kg p.o. qdx5/wx2w): 0/7 | BWL % (body weight loss) ([6]; A 0.28 mg/kg p.o. qdx5/w): 16% | CR (complete response) ([6]; A 0.28 mg/kg p.o. qdx5/w): 0/8 | LCK (log10 cell kill) ([6]; A 0.28 mg/kg p.o. qdx5/w): 1.45 | TVI % (tumor volume inhibition) ([6]; A 0.28 mg/kg p.o. qdx5/w): 94% | Tox (dead/treated mice) ([6]; A 0.28 mg/kg p.o. qdx5/w): 1/8

CC(=O)O[C@@]12CO[C@@H]1C[C@H](O)[C@@]1(C)C(=O)[C@H](O)C3=C(C)[C@@H](OC(=O)[C@H](O)[C@@H](NC(=O)OC(C)(C)C)c4ccccc4)C[C@@](O)([C@@H](OC(=O)c4ccccc4)[C@H]21)C3(C)C [B, docetaxel, reference compound]
CR (complete response) (MCF-7 human breast ca.; [9]): 1/8 | TVI % (tumor volume inhibition) (MCF-7 human breast ca.; [9]): 73% | MTD ([3]; CD1 nu/nu, mouse, in vivo, ip, docetaxel i.p. q4dx2, read-out: MTD): 20 mg/kg | TVI % (tumor volume inhibition) ([6]; docetaxel 20 mg/kg i.p. q4dx2): 63%

CC(=O)O[C@H]1C(=O)[C@@]2(C)[C@H]([C@H](OC(=O)c3ccccc3)[C@]3(O)C[C@H](OC(=O)[C@H](O)[C@@H](NC(=O)c4ccccc4)c4ccccc4)C(C)=C1C3(C)C)[C@]1(OC(C)=O)CO[C@@H]1C[C@@H]2O [B, paclitaxel, reference compound]
MTD ([3]; female, CD1 nu/nu, mouse, in vivo, iv, paclitaxel i.v. q7dx3, read-out: tolerated dose (MTD)): 50 mg/kg | T/C % (TW in treated mice/TW in control mice × 100) (NCI-H460 NSCLC [5]; paclitaxel 25 mg/kg i.v. q7dx3): 55.2% | T/C % (TW in treated mice/TW in control mice × 100) (NCI-H460 NSCLC [5]; paclitaxel 33.3 mg/kg i.v. q7dx3): 36.8% | T/C % (TW in treated mice/TW in control mice × 100) (NCI-H460 NSCLC [5]; paclitaxel 50 mg/kg i.v. q7dx3): 38.6%

carboplatin [reference compound]
TVI % (tumor volume inhibition) [2, 10]: 34% | MTD ([3]; carboplatin i.p. q4dx2): 50 mg/kg | TVI % (tumor volume inhibition) [6, 10]: 59%
